Measured values as given in patent US7893109B2, “N,N-dihalogenated amino acids and derivatives” (Novabay Pharmaceuticals, Inc., priority 2003, dated 2011).
≈ marks a conversion by molar mass, not a printed value. Like-named read-outs stand apart in the source and are kept apart here.

How the values were obtained:
in vitro = conditions: human, pH 3.5
Experimental: (§1) Cytotoxicity was assessed by a […] assay system, initially described by Scudiero et al., using 3′-(phenylamino-carbonyl)-3,4-tetrazolium-bis(4-methoxy-6-nitro) benzene sulfonic acid hydrate (XTT), ProCheck™ cell viability assay (Evaluation of a soluble tetrazolium/formazan assay for cell growth and drug sensitivity in culture using human and other tumor cell lines described by Scudiero D A, Shoemaker R A H, Paul K D, Monks A, Tierney S, Nofziger T H, Currens M J, Seniff D, Boyd M R. Cancer Res. 1988 Sep. 1; 48(17):4827-33). Similar approaches for determining the cell viability are used by other investigators. Three cell types were used: […] (L929), primary human skin fibroblast and primary human keratinocyte cells cultured in Dulbecco Modified Eagle's Medium and Keratinocyte defined medium with corresponding growth factors plus antibiotics. Cells were trypsinized and counted under the microscope and seeded at 1000-to-2000 cells per well of a flat-bottom 96-well plate. Cells were allowed to grow over-night at 37° C. Next day, tissue culture media was removed and cells were rinsed with fresh media 1× and then left in 50 μL of tissue culture media. Test articles were prepared as 2-fold dilutions and 200 μL was added into each set of 4-wells (total volume per well=250 μL). Cells were exposed to test articles for 60 min at room temperature. Immediately after the exposed time, test article from each well was removed and cells were fed with 250 μL of fresh media. Plates were incubated at 37° C. for 18-20 hours. The following day media was removed again and replaced with 100 μL/well of fresh media containing 10/100 μL XTT-reagent. Cells were incubated under growth conditions (5% CO2 at 37° C. humidified incubator), protected from light, until color development was achieved. Absorbance was read at 450 nm with reference wavelength at 750 nm using Molecular Device ThermoMax Plate reader, blanking the plate on the medium-only assay blank wells. Untreated cells receiving XTT reagents-only served as positive cell proliferation control.

[1] = test system: Primary Human Skin Fibroblasts; assay: XTT cytotoxicity assay, primary human skin fibroblasts; conditions: for cell inhibitory concentration toxicity index (CCI50 / IC50), 50% of cells still alive: Primary Human Skin Fibroblasts, XTT Assay, 60 min exposure
Experimental: as §1

[2] = test system: Escherichia coli (ATCC 11229); assay: Bactericidal activity (MBC / effective antimicrobial concentration); type: cell-based
Experimental: To determine the bactericidal activity, we used Escherichia coli (ATCC 11229). The bacterial culture was diluted in sterile saline to prepare inocula. Various test articles were transferred to individual tubes already containing 1.0×10^5 to 2.0×10^5 Colony Forming Units (CFU)/mL bacteria and mixed by gentle vortexing and then incubated at 37° C. for 1 or 24 hours. In an attempt to mimic as far as possible the conditions, which could be produced in vivo if the test articles were used as antiseptics, bacterial plating in a Petri dish was performed immediately after the designated exposure time without the addition of a neutralizer, and independently with addition of neutralizer (as control). Thus, 0.1 mL was removed after 1 or 24 hours exposure times and plated. Plates were incubated at 37° C., and the numbers of bacteria were counted by direct colony count to numerate the surviving bacteria as CFU/mL. Positive growth controls were made with sterile 0.9% saline. All test articles were tested three times.

[3] = Storage stability of N,N-dichlorotaurine solution in a vial in a refrigerator; type: physicochemical; conditions: solution in a vial stored in a refrigerator; three months
Experimental: The stability of a solution of N,N-dihaloamino acids and their derivatives permits the use of different forms of packaging that would be practical for use by patients. The solution may be packaged in several single-use 30 ml amber glass bottles with Teflon-lined screw caps and sealed with tape to ensure gas tightness. In one aspect, the same solution may be packaged in a 250 ml amber glass bottle or in a 250 ml non-reactive plastic bottle. However, up to 5 liter bottles may be used, because such larger volumes are practical for treatment of burns. Storage in these receptacles ensures long-term stability required for the uses of the compositions described herein in detail. […] Additionally, packaging may include a dual chamber system where component A is mixed with component B to form the final product, N,N-dihaloamino acid or its derivatives.

[4] = type: physicochemical
Description: N,N-dichlorotaurine can be identified and quantitatively determined by UV spectroscopy.

[5] = Volatility test, tightly vs loosely capped bottles; type: physicochemical; conditions: 1.47 mM in 0.9% saline at pH 3.5; 4 weeks at room temperature
Experimental: NNDCT is not volatile. A solution of 1.47 mM in 0.9% saline at pH 3.5 was filled in two glass bottles. One bottle was capped tightly and another was capped loosely.

[6] = UV-vis spectrum and concentration of NNDCT solutions at pH 3.0 to 5.0; type: physicochemical; conditions: 1.49 mM; pH range from 3.0 to 5.0
Experimental: The spectra and the concentrations of the solutions were measured on the UV-vis spectrometer.
Add 8.8 g NaCl, 2 ml of 1.0 M HCl, and 0.278 g of taurine into a 1000-ml volumetric flask, followed by adding about 800 ml of deionized water into the flask. Shake the flask to dissolve NaCl and taurine powders. Then add […] of 0.15M of the NaOCl solution into the flask. Fill the flask up to the mark with deionized water. Stir the solution with a magnetic stirring bar for 5 minutes. The concentration and the pH of the resulting solution were measured on a UV-vis spectrometer and a freshly calibrated Beckman pH meter. This solution has a concentration of 1.49 mM and a pH value of 3.85. […] The final pH of this solution is 3.0. […] The final pH of this solution is 4.85.
Solutions with varying pH values were prepared in a similar manner within the pH range of 3 to 5. All solutions show stability if properly stored as shown by their UV spectra.

[7] = pH 3.5
[8] = pH=1.88; after 100 hours; cited from earlier work

For `OCl` [HOCl, hypochlorous acid, reference compound], the IC50 at 60 min (in vitro) was 47 µg/mL (≈ 0.896 mM) and the “cell inhibitory concentration toxicity index (CCI50 / IC50), 50% of cells still alive” value [1] was 800 µM.

For `O=S(=O)(O)CCNCl` [NCT, N-chlorotaurine, reference compound], the “factor by which less antimicrobial than NNDCT” value ([2]; on an equal concentration basis) was 1000 fold.

In the case of `O=S(=O)(O)CCN(Cl)Cl` [NNDCT, N,N-dichlorotaurine], the “bacterial killing efficiency of NNDCT at pH 3.5 compared to NCT at pH 9.5” value ([2]; 60 min exposure at 37° C.) is reported as 1000 fold, the “bacterial killing efficiency of NNDCT at pH 3.5 over NNDCT at pH 5.0” value ([2]; 60 min exposure at 37° C.) is reported as “about 300 fold” and the “effectiveness against E. coli compared with HOCl” value ([2]; pH 3.5) is reported as “better or as effective against E. coli as HOCl”. For the same compound, the IC50 at 60 min (in vitro) was 1440 µg/mL (≈ 7.43 mM), the “range of cell toxicity relative to antimicrobial (μM) range” value ([1]; 0.9% saline at pH 3.5, XTT assay, cell type not stated in Example 5) was 1000 fold and the “cell inhibitory concentration toxicity index (CCI50 / IC50), 50% of cells still alive” value [1] was 7000 µM. For the same compound, the “loss of N,N-dichlorotaurine” value [3] was “no more than 13%”, the solubility in water [4] was “very soluble” and the volatility [5] was “not volatile”. For the same compound, the “change of spectrum and concentration of solution with pH” value [6] was “did not change”, the NNDCT lost ([7]; 4 weeks, refrigerator (4° C.), [NNDCT]initial=1.47 mM) was 5.4% and the “order of stability at three temperatures” value [7] was 4° C.>room temperature>40 °C. The “loss of N,N-dichlorotaurine” value [8] was “less than 5%”.

In the case of `OCl` [OCl^−, reference compound], the “cell inhibitory concentration toxicity index (CCI50 / IC50), 50% of cells still alive” value [1] is reported as 660 µM.
